Key:
BTK = target: T1, BTK (Homo sapiens, UniProt Q06187); assay: BTK kinase electrophoretic mobility shift assay (MSA); assay type: biochemical; details: 50 μM ATP, 0.5 nM BTK enzyme (Nanosyn-293HEK, WT), 3 hours at 25° C.; all examples except 50, 51, 62 and 63; read-out: BTK IC50
T1 construct: purchased Nanosyn, Santa Clara, Calif; host or cells: 293HEK
Method: Kinase activity, unless otherwise indicated, was measured in vitro using an electrophoretic mobility shift assay (MSA). The phosphorylation of a peptide substrate by BTK and other kinases was measured. The kinase reactions were assembled in a total volume of 25 μL per well in 384 well plates. The following was added to each well: compound buffer (or control); enzyme buffer; and substrate buffer, as further described below.
The terminated reactions were analyzed using a 12 channel LABCHIP® 3000 microfluidic detection instrument (available from Caliper Life Sciences, Waltham, Mass.). […] Change in the relative fluorescence intensity of the substrate and product peaks was the parameter measured, reflecting enzyme activity. In the presence of an inhibitor, the ratio between product and substrate was altered. The signal of the product decreased, while the signal of the substrate increased. Capillary electrophoregrams (RDA acquisition files) were analyzed using HTS Well Analyzer software (available from Caliper Life Sciences, Waltham, Mass.).
Activity in each sample was determined as the product to sum ratio (PSR): P/(S+P), where P was the peak height of the product peptide and S was the peak height of the substrate peptide. For each compound, enzyme activity was measured at various concentrations (12 concentrations of compound spaced by 3× dilution intervals). Negative control samples (00 inhibition in the absence of inhibitor) and positive control samples (10000 inhibition, in the presence of 20 mM EDTA) were assembled in replicates of four and were used to calculate 00 inhibition values for each inhibitor at each concentration. Percent inhibition (Pinh) was determined using following equation: Pinh=(PSR0%−PSRinh)/(PSR0%−PSR100%)*100, where PSRinh was the product sum ratio in the presence of inhibitor, PSR0% was the average product sum ratio in the absence of inhibitor and PSR100% was the average product sum ratio in 100%−inhibition control samples.
The IC50 values of inhibitors were determined by 4 parameter sigmoidal dose response model fitting of the inhibition curves (Pinh versus inhibitor concentration) using XLfit® 4 software (available from IDBS, Boston, Mass.).

[1] = target: T2, Phosphorylation of Y223 of BTK (Homo sapiens, UniProt Q06187); assay: Whole blood compound screening, phosphorylation of Y223 site of BTK (MSD assay); assay type: cell-based; details: healthy human whole blood, 2 hours at 37° C., 3 separate donors; read-out: WB BTK-pY223 EC50
T2 construct: host or cells: healthy human whole blood, 3 donors
Method: Healthy human whole blood (WB) was collected from […]™ Technologies or […]® in sodium heparinized tubes. Whole blood was stored at ambient temperature to avoid coagulation. Each compound was tested in 3 separate donors. Compound stock solutions (10 mM) were used to generate dose titration (8 concentrations, starting concentration 10 μM, 1:4 dilution) in appropriate volume of dimethyl sulfoxide (0.2%). Whole blood was incubated with compounds in 96-well plates for 2 hours in tissue culture incubators at 37° C. under a 5% CO2 atmosphere. The whole blood was lysed in equal volume of lysis buffer (Cell Signaling Technology®, Danvers, Mass.) containing complete protease inhibitor tablet, PhosSTOP™ tablet, sodium orthovanadate and sodium fluoride and phenylmethanesulfonyl fluoride solution. The lysed whole blood was then frozen at −80° C. for overnight.
Phosphorylation of Y223 of BTK was measured using an MSD assay (Meso Scale Diagnostics, LLC, Rockville, Md.). The thawed lysed whole blood was incubated with the capturing antibody rabbit anti-human BTK (D3H5) (Cell Signaling Technology, Danvers, Mass.) at 4° C. overnight. After washing out the unbound samples, the detection antibody biotinylated rabbit anti-pY223-BTK(D9T6H) (Cell Signaling Technology®, Danvers, Mass.) was added to the plates. After washing out the unbound antibodies, SULFO-TAG Streptavidin (Meso Scale Diagnostics, LLC, Rockville, Md.) was used for detection on Meso Sector S600 (Meso Scale Diagnostics, LLC, Rockville, Md.).
The EC50 values were determined using software from Dotmatics. The activity of exemplary compounds is illustrated below.

T2 sequence (Q06187 whole entry): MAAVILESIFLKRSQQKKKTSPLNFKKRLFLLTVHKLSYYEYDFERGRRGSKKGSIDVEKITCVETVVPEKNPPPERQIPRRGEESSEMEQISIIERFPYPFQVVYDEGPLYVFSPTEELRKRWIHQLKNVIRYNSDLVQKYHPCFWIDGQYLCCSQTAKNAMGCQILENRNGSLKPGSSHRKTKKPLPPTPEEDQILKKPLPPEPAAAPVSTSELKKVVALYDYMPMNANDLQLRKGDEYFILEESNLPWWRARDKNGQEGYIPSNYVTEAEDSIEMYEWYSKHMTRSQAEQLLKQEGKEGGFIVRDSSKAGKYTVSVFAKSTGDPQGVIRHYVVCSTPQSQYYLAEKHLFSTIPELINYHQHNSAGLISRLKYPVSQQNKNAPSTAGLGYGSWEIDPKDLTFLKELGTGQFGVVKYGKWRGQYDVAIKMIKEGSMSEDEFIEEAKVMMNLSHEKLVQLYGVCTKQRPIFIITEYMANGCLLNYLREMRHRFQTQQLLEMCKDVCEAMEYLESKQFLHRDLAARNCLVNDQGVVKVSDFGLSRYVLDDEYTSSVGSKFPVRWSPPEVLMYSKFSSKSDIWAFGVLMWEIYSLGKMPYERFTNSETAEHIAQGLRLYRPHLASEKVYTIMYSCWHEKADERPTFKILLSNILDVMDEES
T1 sequence (Q06187 whole entry): as above

| SMILES | IC50 (BTK) | EC50 [1] |
| --- | --- | --- |
| C=CC(=O)N1CCN([C@@H]2CCNc3c2nn(-c2ccc(Oc4cccc(OC(F)(F)F)c4)cc2)c3C(N)=O)CC1 [Example 89, (7R)-7-[4-(prop-2-enoyl)piperazin-1-yl]-2-{4-[3-(trifluoromethoxy)phenoxy]phenyl}-4,5,6,7-tetrahydro-2H-pyrazolo[4,3-b]pyridine-3-carboxamide] | 1.75 nM | 525 nM |
| C=CC(=O)N1CCN([C@@H]2CCNc3c2nn(-c2ccc(Oc4ccccc4C(F)(F)F)cc2)c3C(N)=O)CC1 [Example 60, (7R)-7-[4-(prop-2-enoyl)piperazin-1-yl]-2-{4-[2-(trifluoromethyl)phenoxy]phenyl}-4,5,6,7-tetrahydro-2H-pyrazolo[4,3-b]pyridine-3-carboxamide] | 1.42 nM | 83.4 nM |
| C=CC(=O)N1CCN([C@@H]2CCNc3c2nn(-c2ccc(Oc4cccc(C5CC5)c4)cc2)c3C(N)=O)CC1 [Example 78, (7R)-2-[4-(3-cyclopropylphenoxy)phenyl]-7-[4-(prop-2-enoyl)piperazin-1-yl]-4,5,6,7-tetrahydro-2H-pyrazolo[4,3-b]pyridine-3-carboxamide] | 0.671 nM | 57.9 nM |
| C=CC(=O)N1CCN([C@@H]2CCNc3c2nn(-c2ccc(Oc4ccccc4C#N)cc2)c3C(N)=O)CC1 [Example 69, (7R)-2-[4-(2-cyanophenoxy)phenyl]-7-[4-(prop-2-enoyl)piperazin-1-yl]-4,5,6,7-tetrahydro-2H-pyrazolo[4,3-b]pyridine-3-carboxamide] | 2.18 nM | 29.2 nM |
| C=CC(=O)N1CCN([C@@H]2CCNc3c2nn(-c2ccc(Oc4ccccc4C4CC4)cc2)c3C(N)=O)CC1 [Example 68, (7R)-2-[4-(2-cyclopropylphenoxy)phenyl]-7-[4-(prop-2-enoyl)piperazin-1-yl]-4,5,6,7-tetrahydro-2H-pyrazolo[4,3-b]pyridine-3-carboxamide] | 3.18 nM | 96.2 nM |
| C=CC(=O)N1CCN([C@@H]2CCNc3c2nn(-c2ccc(Oc4ccc(F)cc4)cc2)c3C(N)=O)CC1 [Example 71, (7R)-2-[4-(4-fluorophenoxy)phenyl]-7-[4-(prop-2-enoyl)piperazin-1-yl]-4,5,6,7-tetrahydro-2H-pyrazolo[4,3-b]pyridine-3-carboxamide] | 22.8 nM | 279 nM |
| C=CC(=O)N1CC(N2CCNc3c2nn(-c2ccc(Oc4ccc(F)cc4F)cc2)c3C(N)=O)C1 [Example 81, 2-[4-(2,4-difluorophenoxy)phenyl]-7-[1-(prop-2-enoyl)azetidin-3-yl]-4,5,6,7-tetrahydro-2H-pyrazolo[3,4-b]pyrazine-3-carboxamide] | 5.24 nM | 75.1 nM |
| C=CC(=O)N1CCN([C@@H]2CCNc3c2nn(-c2ccc(Oc4cccc(F)c4)cc2)c3C(N)=O)CC1 [Example 67, (7R)-2-[4-(3-fluorophenoxy)phenyl]-7-[4-(prop-2-enoyl)piperazin-1-yl]-4,5,6,7-tetrahydro-2H-pyrazolo[4,3-b]pyridine-3-carboxamide] | 0.737 nM | 18.8 nM |
| C=CC(=O)N1CCN([C@@H]2CCNc3c2nn(-c2ccc(Oc4cccc(C#N)c4)cc2)c3C(N)=O)CC1 [Example 64, (7R)-2-[4-(3-cyanophenoxy)phenyl]-7-[4-(prop-2-enoyl)piperazin-1-yl]-4,5,6,7-tetrahydro-2H-pyrazolo[4,3-b]pyridine-3-carboxamide] | 5.58 nM | 75 nM |
| C=CC(=O)N1CC(N2CCNc3c2nn(-c2ccc(Oc4cccc(F)c4F)cc2)c3C(N)=O)C1 [Example 76, 2-[4-(2,3-difluorophenoxy)phenyl]-7-[1-(prop-2-enoyl)azetidin-3-yl]-4,5,6,7-tetrahydro-2H-pyrazolo[3,4-b]pyrazine-3-carboxamide] | 0.968 nM | 85.5 nM |
| C=CC(=O)N1CCC([C@H]2CCNc3c2nn(-c2ccc(Oc4ccc(F)cc4F)cc2)c3C(N)=O)CC1 [Example 30, (7R)-2-[4-(2,4-difluorophenoxy)phenyl]-7-[1-(prop-2-enoyl)piperidin-4-yl]-4,5,6,7-tetrahydro-2H-pyrazolo[4,3-b]pyridine-3-carboxamide] | 1.05 nM | 45.3 nM |
| C=CC(=O)N1CCN([C@@H]2CCNc3c2nn(-c2ccc(Oc4ccccc4OC(F)(F)F)cc2)c3C(N)=O)CC1 [Example 90, (7R)-7-[4-(prop-2-enoyl)piperazin-1-yl]-2-{4-[2-(trifluoromethoxy)phenoxy]phenyl}-4,5,6,7-tetrahydro-2H-pyrazolo[4,3-b]pyridine-3-carboxamide] | 1.29 nM | 933 nM |
| C=CC(=O)N1CCC(C2CCNc3c2nn(-c2ccc(Oc4cccc(C)c4)cc2)c3C(N)=O)CC1 (stereo not shown) [Example 24, 2-[4-(3-methylphenoxy)phenyl]-7-[1-(prop-2-enoyl)piperidin-4-yl]-4,5,6,7-tetrahydro-2H-pyrazolo[4,3-b]pyridine-3-carboxamide] | 0.735 nM | 92.9 nM |

Further molecules by falling IC50 (BTK), results first:

| IC50 (BTK) | EC50 [1] | SMILES |
| --- | --- | --- |
| 2.42 nM | 608 nM | C=CC(=O)N1CCN([C@@H]2CCNc3c2nn(-c2ccc(Oc4ccc(C)cc4)cc2)c3C(N)=O)CC1 [Example 92, (7R)-2-[4-(4-methylphenoxy)phenyl]-7-[4-(prop-2-enoyl)piperazin-1-yl]-4,5,6,7-tetrahydro-2H-pyrazolo[4,3-b]pyridine-3-carboxamide] |
| 1.66 nM | 399 nM | C=CC(=O)N1CCN([C@@H]2CCNc3c2nn(-c2ccc(Oc4cccc(OC)c4)cc2)c3C(N)=O)CC1 [Example 91, (7R)-2-[4-(3-methoxyphenoxy)phenyl]-7-[4-(prop-2-enoyl)piperazin-1-yl]-4,5,6,7-tetrahydro-2H-pyrazolo[4,3-b]pyridine-3-carboxamide] |
| 1.19 nM | 76.7 nM | C=CC(=O)N1CCN(C2CCNc3c2nn(-c2ccc(Oc4ccccc4C(F)(F)F)cc2)c3C(N)=O)CC1 (stereo not shown) [Example 54, 7-[4-(prop-2-enoyl)piperazin-1-yl]-2-{4-[2-(trifluoromethyl)phenoxy]phenyl}-4,5,6,7-tetrahydro-2H-pyrazolo[4,3-b]pyridine-3-carboxamide] |
| 1.17 nM | 62.5 nM | C=CC(=O)N1CCN(C2CCNc3c2nn(-c2ccc(Oc4ccccc4)cc2)c3C(N)=O)C[C@@H]1C (stereo partly drawn) [Example 43, 7-[(3S)-3-methyl-4-(prop-2-enoyl)piperazin-1-yl]-2-(4-phenoxyphenyl)-4,5,6,7-tetrahydro-2H-pyrazolo[4,3-b]pyridine-3-carboxamide] |
| 0.884 nM | 128 nM | C=CC(=O)N1[C@@H]2CC[C@H]1CN(C1CCNc3c1nn(-c1ccc(Oc4ccccc4)cc1)c3C(N)=O)C2 (stereo partly drawn) [Example 35, 2-(4-phenoxyphenyl)-7-[(1R,5S)-8-(prop-2-enoyl)-3,8-diazabicyclo[3.2.1]octan-3-yl]-4,5,6,7-tetrahydro-2H-pyrazolo[4,3-b]pyridine-3-carboxamide] |
| 0.684 nM | 55.6 nM | C=CC(=O)N1CCC(C2CCNc3c2nn(-c2ccc(Oc4cccc(OC)c4)cc2)c3C(N)=O)CC1 (stereo not shown) [Example 15, 2-[4-(3-methoxyphenoxy)phenyl]-7-[1-(prop-2-enoyl)piperidin-4-yl]-4,5,6,7-tetrahydro-2H-pyrazolo[4,3-b]pyridine-3-carboxamide] |
| 0.426 nM | 42.2 nM | C=CC(=O)N1CCC(C2CCNc3c2nn(-c2ccc(Oc4ccccc4)cc2)c3C(N)=O)CC1 (racemic) [Example 1, Rac-2-(4-phenoxyphenyl)-7-[1-(prop-2-enoyl)piperidin-4-yl]-4,5,6,7-tetrahydro-2H-pyrazolo[4,3-b]pyridine-3-carboxamide] |

From patent publication US20220213092A1, “BICYCLIC PYRAZOLE BRUTON'S TYROSINE KINASE INHIBITORS” (AbbVie Inc., priority 2020, published 2022)
